Experimental data reported in patent US8349844B2, “Substituted pyrazolo [1,5-A] pyrimidines as metabotropic glutamate antagonists” (Hoffmann-La Roche Inc., priority 2005, dated 2013).

Assays:
rat mGlu2 receptor = biological target: T1, rat mGlu2 receptor (Rattus norvegicus, UniProt P31421); experiment: [3H]-LY354740 binding on mGlu2 transfected CHO cell membranes; settings: [3H]-LY354740 (10 nM) displacement
T1 construct: expressed in transfected cells; membranes prepared from them
Text: [^3H]-LY354740 Binding on mGlu2 Transfected CHO Cell Membranes. Transfection and Cell Culture
cDNA encoding the rat mGlu2 receptor protein in pBluescript II was subcloned into the eukaryotic expression vector pcDNA I-amp from Invitrogen Ltd (Paisley, UK). This vector construct (pcD1mGR2) was co-transfected with a psvNeo plasmid encoding the gene for neomycin resistance, into CHO cells by a modified calcium phosphate method described by Chen & Okayama (1988). The cells were maintained in Dulbecco's Modified Eagle medium with reduced L-glutamine (2 mM final concentration) and 10% dialysed foetal calf serum from Gibco-Invitrogen (Carlsbad, Calif., USA). Selection was made in the presence of G-418 (1000 ug/ml final) and […]. Clones were identified by reverse transcription of 5 μg total RNA, followed by PCR using mGlu2 receptor specific primers 5′-[…]-3′ and 5′-[…]-3′ in 60 mM Tris HCl (pH 10), 15 mM (NH4)2SO4, 2 mM MgCl2, 25 units/ml Taq Polymerase with 30 cycles annealing at 60° C. for 1 min., extention at 72° C. for 30 s, and 1 min. 95° C. denaturation.
Cells, cultured as above, were harvested and washed three times with cold PBS and frozen at −80° C. The pellet was resuspended in cold 20 mM HEPES-NaOH buffer containing 10 mM EDTA (pH 7.4), and homogenised with a polytron (Kinematica, A G, Littau, Switzerland) for 10 s at 10 000 rpm. After centrifugation for 30 min. at 4° C., the pellet was washed once with the same buffer, and once with cold 20 mM HEPES-NaOH buffer containing 0.1 mM EDTA, (pH 7.4). Protein content was measured using the micro BCA method from Pierce-Perbio (Rockford, Ill., USA) using bovine serum albumin as standard.
After thawing, the membranes were resuspended in cold 50 mM Tris-HCl buffer containing 2 mM MgCl2 (pH 7) (binding buffer). The final concentration of the membranes in the assays was 25 μg protein/ml. Inhibition experiments were performed with membranes incubated with 10 nM [^3H]-LY354740 at room temperature, for 1 hour, in presence of various concentrations of the compound to be tested. Following the incubations, membranes were filtered onto Whatmann GF/B glass fiber filters and washed 5 times with cold binding buffer. Non specific binding was measured in the presence of 10 μM DCG IV. After transfer of the filters into plastic vials containing 10 ml of Ultima-gold scintillation fluid from Perkin-Elmer (Boston, Mass., USA), the radioactivity was measured by liquid scintillation in a Tri-Garb 2500 TR counter (Packard, Zürich, Switzerland).
The inhibition curves were fitted with a four parameter logistic equation giving IC50 values, and Hill coefficients.

T1 sequence (P31421 19-872): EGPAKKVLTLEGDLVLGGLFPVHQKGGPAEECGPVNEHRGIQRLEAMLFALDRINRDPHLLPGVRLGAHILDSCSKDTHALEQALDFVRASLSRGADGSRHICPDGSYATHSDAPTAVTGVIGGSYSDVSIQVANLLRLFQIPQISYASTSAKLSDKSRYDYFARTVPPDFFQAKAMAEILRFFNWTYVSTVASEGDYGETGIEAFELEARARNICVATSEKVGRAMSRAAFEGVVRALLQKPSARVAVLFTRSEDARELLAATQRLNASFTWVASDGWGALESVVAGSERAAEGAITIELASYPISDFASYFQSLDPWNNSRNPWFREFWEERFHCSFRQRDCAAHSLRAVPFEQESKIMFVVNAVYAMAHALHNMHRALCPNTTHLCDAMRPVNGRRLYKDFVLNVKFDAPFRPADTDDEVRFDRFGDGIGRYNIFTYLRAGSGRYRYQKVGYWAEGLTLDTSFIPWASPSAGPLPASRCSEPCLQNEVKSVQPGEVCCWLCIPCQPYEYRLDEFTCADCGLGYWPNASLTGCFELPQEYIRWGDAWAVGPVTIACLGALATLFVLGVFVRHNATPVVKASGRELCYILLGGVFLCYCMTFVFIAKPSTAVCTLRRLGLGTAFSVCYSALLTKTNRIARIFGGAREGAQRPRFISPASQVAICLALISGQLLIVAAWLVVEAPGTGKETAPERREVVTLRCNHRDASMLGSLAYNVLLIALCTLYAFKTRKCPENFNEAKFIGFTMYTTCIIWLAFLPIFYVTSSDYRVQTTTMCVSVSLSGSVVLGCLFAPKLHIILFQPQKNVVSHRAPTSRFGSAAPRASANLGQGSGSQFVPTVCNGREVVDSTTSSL

Ki (rat mGlu2 receptor) | melting point | Compound
8.8 nM | 297 °C | NS(=O)(=O)c1cccc(-c2noc(-c3cnc4c(C(F)(F)F)cc(-c5ccc(C(F)(F)F)cc5)cn34)n2)c1 [Example 11, 3-{5-[8-Trifluoromethyl-6-(4-trifluoromethyl-phenyl)-imidazo[1,2-a]pyridin-3-yl]-[1,2,4]oxadiazol-3-yl}-benzenesulfonamide]
21.3 nM | 271 °C | Cc1cc(-c2ccc(Cl)cc2)cn2c(-c3nc(-c4ccc(S(N)(=O)=O)s4)no3)cnc12 [Example 41, 5-{5-[6-(4-Chloro-phenyl)-8-methyl-imidazo[1,2-a]pyridin-3-yl]-[1,2,4]oxadiazol-3-yl}-thiophene-2-sulfonic acid amide]
14.5 nM | 254 °C | Nc1ncc(-c2noc(-c3cnn4c(C(F)(F)F)cc(-c5ccc(C(F)(F)F)cc5)nc34)n2)cn1 [Example 46, 5-{5-[7-Trifluoromethyl-5-(4-trifluoromethyl-phenyl)-pyrazolo[1,5-a]pyrimidin-3-yl]-[1,2,4]oxadiazol-3-yl}-pyrimidin-2-ylamine]
7.7 nM | 257 °C | Cc1cc(-c2ccc(C(F)(F)F)cc2)cn2c(-c3nc(-c4ccc(N)nc4)no3)cnc12 [Example 47, 5-{5-[8-Methyl-6-(4-trifluoromethyl-phenyl)-imidazo[1,2-a]pyridin-3-yl]-[1,2,4]oxadiazol-3-yl}-pyridin-2-ylamine]
6.5 nM | 302 °C | Cc1cc(-c2ccc(C(F)(F)F)cc2)cn2c(-c3nc(-c4cnc(N)nc4)no3)cnc12 [Example 48, 5-{5-[8-Methyl-6-(4-trifluoromethyl-phenyl)-imidazo[1,2-a]pyridin-3-yl]-[1,2,4]oxadiazol-3-yl}-pyrimidin-2-ylamine]

The remaining lines, values behind:

Compound | Ki (rat mGlu2 receptor) | melting point
NS(=O)(=O)c1ccc(-c2noc(-c3cnn4c(C(F)(F)F)cc(-c5ccc(C(F)(F)F)cc5)nc34)n2)cc1 [Example 1, 4-{5-[7-Trifluoromethyl-5-(4-trifluoromethyl-phenyl)-pyrazolo[1,5-a]pyrimidin-3-yl]-[1,2,4]oxadiazol-3-yl}-benzenesulfonamide] | 5.6 nM | 275 °C
FC(F)(F)c1ccc(-c2cc(C(F)(F)F)n3ncc(-c4nc(-c5cccnc5)no4)c3n2)cc1 [Example 3, 3-(3-Pyridin-3-yl-[1,2,4]oxadiazol-5-yl)-7-trifluoromethyl-5-(4-trifluoromethyl-phenyl)-pyrazolo[1,5-a]pyrimidine] | 48.1 nM | 199 °C
NS(=O)(=O)c1ccc(-c2noc(-c3cnn4c(C5CC5)cc(-c5ccc(Cl)cc5)nc34)n2)s1 [Example 20, 5-{5-[5-(4-Chloro-phenyl)-7-cydopropyl-pyrazolo[1,5-a]pyrimidin-3-yl]-[1,2,4]oxadiazol-3-yl}-thiophene-2-sulfonic acid amide] | 16.1 nM | 294 °C
NS(=O)(=O)c1ccc(-c2nc(-c3ncn4c(C(F)(F)F)cc(-c5ccc(C(F)(F)F)cc5)nc34)no2)cc1 [Example 21, 4-{3-[4-Trifluoromethyl-2-(4-trifluoromethyl-phenyl)-imidazo[1,5-a]pyrimidin-8-yl]-[1,2,4]oxadiazol-5-yl}-benzenesulfonamide] | 10.2 nM | 303 °C
Nc1ccc(-c2noc(-c3cnn4c(C(F)(F)F)cc(-c5cccc(C(F)(F)F)c5)nc34)n2)cn1 [Example 34, 5-{5-[7-Trifluoromethyl-5-(3-trifluoromethyl-phenyl)-pyrazolo[1,5-a]pyrimidin-3-yl]-[1,2,4]oxadiazol-3-yl}-pyridin-2-ylamine] | 51 nM | 264 °C
NS(=O)(=O)c1ccc(-c2noc(-c3ncn4c(C(F)(F)F)cc(-c5ccc(C(F)(F)F)cc5)nc34)n2)s1 [Example 42, 5-{5-[4-Trifluoromethyl-2-(4-trifluoromethyl-phenyl)-imidazo[1,5-a]pyrimidin-8-yl]-[1,2,4]oxadiazol-3-yl}-thiophene-2-sulfonic acid amide] | 14.6 nM | 295 °C
Cc1cc(-c2cc(C(F)F)n3ncc(-c4nc(-c5ccc(N)nc5)no4)c3n2)ccc1Cl [Example 77, 5-{5-[5-(4-Chloro-3-methyl-phenyl)-7-difluoromethyl-pyrazolo[1,5-a]pyrimidin-3-yl]-[1,2,4]oxadiazol-3-yl}-pyridin-2-ylamine] | 25.5 nM | 243 °C
